# Experimental data published in patent US10632106B2, “Methods of cancer treatment with 2-(1′H-Indole-3′-carbonyl)-thiazole-4-carboxylic acid methyl ester” (Ariagen, Inc., priority 2009, dated 2020).
# Test system: SW116 (human colon cancer) xenografts
# Test: SW116 xenograft growth inhibition
# Assay type: in vivo
# Details: ITE 100-200 mg/kg i.p. once daily
# Procedure: All the procedures related to animal handling, care, and the treatment in the study were performed following guidelines of KeyGen Biotechn Co., Ltd. (Nanjing, China), a contract research organization we hired, based on the guidance of the Association for Assessment and Accreditation of Laboratory Animal Care (AAALAC). Animals were checked for any effects of tumor growth and drug treatment on normal behavior such as mobility, food and water consumption, body weight gain/loss (bodyweights were measured every two days), eye/hair matting, and any other abnormal effect. Death and observed clinical signs were recorded. Individual animals with a tumor volume exceeding 3,000 mm^3 or animals of a group with a mean tumor volume exceeding 2,000 mm^3 were euthanized. In addition, animals showing signs of severe distress and/or pain or losing the capability of accessing adequate food or water were humanely sacrificed.
# Cell lines HCT116, Siha, MFC were cultured in DMEM medium (high glucose) supplemented with 10% fetal bovine serum (FBS), SW116 and T24 in RPMI-1640 medium with 10% FBS, M14 and A375 in DMEM medium (high glucose) with 10% calf serum (CS), SGC7901 and Ketr-3 in RPMI-1640 medium with 10% CS, and CFPAC-1 in IMDM medium with 10% FBS. All of the cells were cultured, in the presence of 100 U/ml penicillin and 100 μg/ml streptomycin, at 37° C. in an atmosphere of 5% CO2 in air. […] The cells growing in an exponential phase were harvested and counted for tumor inoculation. Cell lines 5180 and U14 were maintained in ascites (peritoneal cavity fluid) of mice and were harvested and counted for tumor inoculation. […]
# Tumor volume was measured every two days in two dimensions using a caliper and the volume was calculated with a formula of: V=0.5 a×b^2, where a and b are the long and short diameter (in mm) of a tumor, respectively. […] The TGD was calculated as: TGD=T−C, where T was the time (in days) required for tumors in a drug treated group to reach a predetermined mean tumor volume and C the time (in days) in the control group to reach the same volume. […]
smiles,measurement,setting,value
"COC(=O)c1csc(C(=O)c2c[nH]c3ccccc23)n1 [ITE, 2-(1′H-indole-3′-carbonyl)-thiazole-4-carboxylic acid methyl ester]",TGD,"TGD at Vol. 1,000",9 days
same,TGI (%),"TGI at day 20, TGI=(1−ΔT/ΔC)×100%",67%
same,Weight Loss,end of therapy relative to beginning,15%
